Assay results from US5292733A, “Cephalosporin compounds” (Lucky Limited, priority 1991, dated 1994).
Converted amounts (≈) assume the structure as drawn. Like-named read-outs stand apart in the source and are kept apart here.

Experiments:
Test in all cases: Antibacterial activity MIC, two-fold agar dilution
Assay type in all cases: cell-based
[1] = test system: Staphylococcus aureus ATCC 6538p; conditions: ATCC6538P, read-out: Antibacterial Activity MIC
Protocol: (§1) These MIC values were taken by employing a two-fold dilution method: that is, two-fold serial dilutions of each of the test compounds were made and dispersed in a Muller-Hinton agar medium; 2 μl of the standard test strain which had the 10^7 CFU(Colony Forming Unit) per ml was inoculated on the medium; and these were incubated at 37° C. for 20 hours. The results of the MIC tests are shown Table 1.

[2] = test system: Proteus vulgaris ATCC 6059; conditions: read-out: Antibacterial Activity MIC
Protocol: as §1

[3] = test system: Micrococcus luteus ATCC 9341; conditions: read-out: Antibacterial Activity MIC
Protocol: as §1

[4] = test system: Escherichia coli ATCC 25922; conditions: ATCC25922, Muller-Hinton agar, 37° C., 20 hours
Protocol: as §1

[5] = test system: Escherichia coli ATCC 10536; conditions: ATCC10536, Muller-Hinton agar, 37° C., 20 hours
Protocol: as §1

[6] = test system: Bacillus megaterium ATCC 9885; conditions: Priestia megaterium, read-out: Antibacterial Activity MIC
Protocol: as §1

[7] = test system: Serratia marcescens ATCC 27117; conditions: read-out: Antibacterial Activity MIC
Protocol: as §1

[8] = test system: Enterobacter cloacae ATCC 27508; conditions: read-out: Antibacterial Activity MIC
Protocol: as §1

[9] = test system: Bacillus cereus ATCC 11778; conditions: read-out: Antibacterial Activity MIC
Protocol: as §1

[10] = test system: Shigella flexneri ATCC 11836; conditions: ATCC11836, Muller-Hinton agar, 37° C., 20 hours
Protocol: as §1

[11] = test system: Klebsiella pneumoniae ATCC 10031; conditions: read-out: Antibacterial Activity MIC
Protocol: as §1

[12] = test system: Acinetobacter calcoaceticus ATCC 15473; conditions: read-out: Antibacterial Activity MIC
Protocol: as §1

[13] = test system: Enterobacter aerogenes ATCC 29751; conditions: Klebsiella aerogenes, read-out: Antibacterial Activity MIC
Protocol: as §1

[14] = test system: Citrobacter freundii ATCC 8090; conditions: read-out: Antibacterial Activity MIC
Protocol: as §1

[15] = test system: Shigella sonnei ATCC 11060; conditions: ATCC11060, Muller-Hinton agar, 37° C., 20 hours
Protocol: as §1

[16] = test system: Pseudomonas aeruginosa ATCC 10145; conditions: read-out: Antibacterial Activity MIC
Protocol: as §1

[17] = test system: Pseudomonas aeruginosa ATCC 27853; conditions: read-out: Antibacterial Activity MIC
Protocol: as §1

[18] = test system: Proteus mirabilis ATCC 25933; conditions: read-out: Antibacterial Activity MIC
Protocol: as §1

[19] = test system: Pseudomonas aeruginosa ATCC 25619; conditions: read-out: Antibacterial Activity MIC
Protocol: as §1

[20] = test system: Salmonella typhimurium ATCC 14028; conditions: Salmonella enterica, read-out: Antibacterial Activity MIC
Protocol: as §1

[21] = test system: Staphylococcus aureus ATCC 10537; conditions: read-out: Antibacterial Activity MIC
Protocol: as §1

[22] = test system: Morganella morganii ATCC 8076h; conditions: ATCC8076H, Muller-Hinton agar, 37° C., 20 hours
Protocol: as §1

[23] = test system: Providencia rettgeri ATCC 9250; conditions: ATCC9250, Muller-Hinton agar, 37° C., 20 hours
Protocol: as §1

[24] = test system: Streptococcus faecalis ATCC 29212; conditions: Enterococcus faecalis, read-out: Antibacterial Activity MIC
Protocol: as §1

[25] = test system: Staphylococcus epidermidis ATCC 12228; conditions: read-out: Antibacterial Activity MIC
Protocol: as §1

CO/N=C(\C(=O)N[C@@H]1C(=O)N2C(C(=O)O)=C(COC(C)=O)CS[C@H]12)c1csc(N)n1 [Cefotaxime, reference compound]
MIC ([1]; Staphylococcus aureus ATCC 6538p, Muller-Hinton agar, 37° C., 20 hours): 4 µg/mL (≈ 8.78 µM)
MIC ([2]; ATCC6059, Proteus vulgaris ATCC 6059, Muller-Hinton agar, 37° C., 20 hours): 0.031 µg/mL (≈ 0.0681 µM)
MIC ([3]; ATCC9341, Micrococcus luteus ATCC 9341, Muller-Hinton agar, 37° C., 20 hours): 0.031 µg/mL (≈ 0.0681 µM)
MIC [4]: 0.031 µg/mL (≈ 0.0681 µM)
MIC [5]: 0.031 µg/mL (≈ 0.0681 µM)
MIC ([6]; ATCC9885, Bacillus megaterium ATCC 9885, Muller-Hinton agar, 37° C., 20 hours): 0.063 µg/mL (≈ 0.138 µM)
MIC ([7]; ATCC27117, Serratia marcescens ATCC 27117, Muller-Hinton agar, 37° C., 20 hours): 0.13 µg/mL (≈ 0.285 µM)
MIC ([8]; ATCC27508, Enterobacter cloacae ATCC 27508, Muller-Hinton agar, 37° C., 20 hours): ≤ 0.008 µg/mL
MIC ([9]; ATCC11778, Bacillus cereus ATCC 11778, Muller-Hinton agar, 37° C., 20 hours): 64 µg/mL (≈ 141 µM)
MIC [10]: 0.016 µg/mL (≈ 0.0351 µM)
MIC ([11]; ATCC10031, Klebsiella pneumoniae ATCC 10031, Muller-Hinton agar, 37° C., 20 hours): ≤ 0.008 µg/mL
MIC ([12]; ATCC15473, Acinetobacter calcoaceticus ATCC 15473, Muller-Hinton agar, 37° C., 20 hours): 8 µg/mL (≈ 17.6 µM)
MIC ([13]; ATCC29751, Enterobacter aerogenes ATCC 29751, Muller-Hinton agar, 37° C., 20 hours): 2 µg/mL (≈ 4.39 µM)
MIC ([14]; ATCC8090, Citrobacter freundii ATCC 8090, Muller-Hinton agar, 37° C., 20 hours): 0.063 µg/mL (≈ 0.138 µM)
MIC [15]: 0.063 µg/mL (≈ 0.138 µM)
MIC ([16]; ATCC10145, Pseudomonas aeruginosa ATCC 10145, Muller-Hinton agar, 37° C., 20 hours): 16 µg/mL (≈ 35.1 µM)
MIC ([17]; ATCC27853, Pseudomonas aeruginosa ATCC 27853, Muller-Hinton agar, 37° C., 20 hours): 8 µg/mL (≈ 17.6 µM)
MIC ([18]; ATCC25933, Proteus mirabilis ATCC 25933, Muller-Hinton agar, 37° C., 20 hours): 0.031 µg/mL (≈ 0.0681 µM)
MIC ([19]; ATCC25619, Pseudomonas aeruginosa ATCC 25619, Muller-Hinton agar, 37° C., 20 hours): 1 µg/mL (≈ 2.2 µM)
MIC ([20]; Salmonella typhimurium ATCC 14028, Muller-Hinton agar, 37° C., 20 hours): 0.13 µg/mL (≈ 0.285 µM)
MIC ([21]; ATCC10537, Staphylococcus aureus ATCC 10537, Muller-Hinton agar, 37° C., 20 hours): 1 µg/mL (≈ 2.2 µM)
MIC [22]: ≤ 0.008 µg/mL
MIC [23]: ≤ 0.008 µg/mL
MIC ([24]; ATCC29212, Streptococcus faecalis ATCC 29212, Muller-Hinton agar, 37° C., 20 hours): > 128 µg/mL
MIC ([25]; ATCC12228, Staphylococcus epidermidis ATCC 12228, Muller-Hinton agar, 37° C., 20 hours): 1 µg/mL (≈ 2.2 µM)

CC(C)(O/N=C(\C(=O)N[C@@H]1C(=O)N2C(C(=O)[O-])=C(C[n+]3ccccc3)CS[C@H]12)c1csc(N)n1)C(=O)O [Ceftazidime, reference compound]
MIC ([1]; Staphylococcus aureus, 20 h): 16 µg/mL (≈ 29.3 µM)
MIC ([2]; Proteus vulgaris, ATCC6059, 20 h): 0.063 µg/mL (≈ 0.115 µM)
MIC ([3]; Micrococcus luteus, ATCC9341, 20 h): 1 µg/mL (≈ 1.83 µM)
MIC [4]: 0.13 µg/mL (≈ 0.238 µM)
MIC [5]: 0.13 µg/mL (≈ 0.238 µM)
MIC ([6]; ATCC9885, 20 h): 0.25 µg/mL (≈ 0.457 µM)
MIC ([7]; Serratia marcescens, ATCC27117, 20 h): 0.13 µg/mL (≈ 0.238 µM)
MIC ([8]; Enterobacter cloacae, ATCC27508, 20 h): 0.063 µg/mL (≈ 0.115 µM)
MIC ([9]; Bacillus cereus, ATCC11778, 20 h): 128 µg/mL (≈ 234 µM)
MIC [10]: 0.063 µg/mL (≈ 0.115 µM)
MIC ([11]; Klebsiella pneumoniae, ATCC10031, 20 h): 0.13 µg/mL (≈ 0.238 µM)
MIC ([12]; Acinetobacter calcoaceticus, ATCC15473, 20 h): 4 µg/mL (≈ 7.32 µM)
MIC ([13]; ATCC29751, 20 h): 4 µg/mL (≈ 7.32 µM)
MIC ([14]; Citrobacter freundii, ATCC8090, 20 h): 1 µg/mL (≈ 1.83 µM)
MIC [15]: 0.063 µg/mL (≈ 0.115 µM)
MIC ([16]; Pseudomonas aeruginosa, ATCC10145, 20 h): 2 µg/mL (≈ 3.66 µM)
MIC ([17]; Pseudomonas aeruginosa, ATCC27853, 20 h): 1 µg/mL (≈ 1.83 µM)
MIC ([18]; Proteus mirabilis, ATCC25933, 20 h): 0.063 µg/mL (≈ 0.115 µM)
MIC ([19]; Pseudomonas aeruginosa, ATCC25619, 20 h): 1 µg/mL (≈ 1.83 µM)
MIC ([20]; 20 h): 0.25 µg/mL (≈ 0.457 µM)
MIC ([21]; Staphylococcus aureus, ATCC10537, 20 h): 8 µg/mL (≈ 14.6 µM)
MIC [22]: 0.016 µg/mL (≈ 0.0293 µM)
MIC [23]: ≤ 0.008 µg/mL
MIC ([24]; ATCC29212, 20 h): > 128 µg/mL
MIC ([25]; Staphylococcus epidermidis, ATCC12228, 20 h): 8 µg/mL (≈ 14.6 µM)
